Tests used:
[1] = target: T1, elastase (Porcine pancreatic elastase) (Sus scrofa, UniProt P00772); test: absorbance […] nm, p-nitroanilide release; assay type: biochemical
T1 construct: gene CELA1; native pancreatic enzyme, commercial preparation; mature active enzyme

[2] = target: T2, hyaluronidase from bovine testes type I-S (Bos taurus, UniProt Q2YDK3); test: turbidity with acidic albumin, absorbance […] nm; assay type: biochemical; conditions: hyaluronic acid substrate (0.03% stock); phosphate pH 5.35; 37 °C; 45 min; preincubation at pH 7
T2 construct: gene SPAM1; native bovine testes enzyme, commercial type I-S preparation
T2 sequence (Q2YDK3 36-553): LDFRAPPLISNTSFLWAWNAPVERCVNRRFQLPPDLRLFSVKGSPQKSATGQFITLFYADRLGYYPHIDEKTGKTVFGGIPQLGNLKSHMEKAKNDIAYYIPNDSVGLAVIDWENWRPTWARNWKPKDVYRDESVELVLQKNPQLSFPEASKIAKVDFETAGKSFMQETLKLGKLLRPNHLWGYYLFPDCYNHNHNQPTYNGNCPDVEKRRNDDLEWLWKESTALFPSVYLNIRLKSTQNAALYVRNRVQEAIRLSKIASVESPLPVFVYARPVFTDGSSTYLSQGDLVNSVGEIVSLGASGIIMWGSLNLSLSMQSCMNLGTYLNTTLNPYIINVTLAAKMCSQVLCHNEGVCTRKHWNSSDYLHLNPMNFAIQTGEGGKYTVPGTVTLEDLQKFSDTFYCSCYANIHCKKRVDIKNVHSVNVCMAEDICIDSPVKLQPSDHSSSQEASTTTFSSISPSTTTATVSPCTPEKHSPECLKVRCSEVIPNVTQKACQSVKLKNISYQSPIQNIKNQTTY

huRPA32 = huRPA32 (human, UniProt P15927 1-270); test: EMSA; no extract; [Protein]50; 40 mM Tris-HCl pH 7.5, 50 mM NaCl, 37 °C 60 min, DNA 30 fmol/uL; 8% native PAGE in TBE; conditions: protein: recombinant; tags: N-terminal EF (EcoRI site); label: 5' biotin; single-stranded
huRPA32, sequence (P15927 whole entry): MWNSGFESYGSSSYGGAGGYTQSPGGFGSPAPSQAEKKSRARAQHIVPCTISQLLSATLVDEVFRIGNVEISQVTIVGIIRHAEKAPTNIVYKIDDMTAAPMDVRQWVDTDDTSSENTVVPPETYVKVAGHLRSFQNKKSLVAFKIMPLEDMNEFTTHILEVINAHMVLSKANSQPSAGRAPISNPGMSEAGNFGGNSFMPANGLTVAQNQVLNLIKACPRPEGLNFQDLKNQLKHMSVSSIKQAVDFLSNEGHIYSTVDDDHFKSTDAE

T1 sequence (P00772 27-266): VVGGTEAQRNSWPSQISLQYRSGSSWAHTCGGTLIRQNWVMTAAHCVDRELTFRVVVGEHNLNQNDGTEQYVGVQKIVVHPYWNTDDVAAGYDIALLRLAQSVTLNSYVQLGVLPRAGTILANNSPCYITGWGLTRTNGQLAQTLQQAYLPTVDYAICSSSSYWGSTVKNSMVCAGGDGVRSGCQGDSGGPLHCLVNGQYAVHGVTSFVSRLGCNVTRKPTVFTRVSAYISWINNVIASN

## O=C(O[C@@H]1Cc2c(O)cc(O)cc2O[C@@H]1c1cc(O)c(O)c(O)c1)c1cc(O)c(O)c(O)c1 [EGCG]
[1]
  IC50: 9.62 µM

## O=c1c(O)c(-c2cc(O)c(O)c(O)c2)oc2cc(O)cc(O)c12 [Myr]
[2]
  IC50: 29.9 µM

## TTTTTTTTTTTTTTTTTTTTTTTTT (ssDNA) [dT25]
huRPA32
  apparent K (half saturation): 6.3 ± 0.5 µM

— paper PMC10974603, “Cytotoxicity and Multi-Enzyme Inhibition of Nepenthes miranda Stem Extract on H838 Human Non-Small Cell Lung Cancer Cells and RPA32, Elastase, Tyrosinase, and Hyaluronidase Proteins” (Plants, 2024)
